Patent US20210127673A1, “HERBICIDES” (SYNGENTA PARTICIPATIONS AG, priority 2016, published 2021)

Key:
Assay type in all cases: in vivo
Set-up in all cases: key: 5=total damage to plant; 0=no damage to plant
[1] = tested on: Setaria faberi (SETFA); test: Pre-emergence herbicidal activity, Setaria faberi; details: 1000 g/ha, evaluated after 13 days, Test 1b
Summary of the method: (§1)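 Compound is applied as an aqueous spray (acetone/water 50:50, 0.5% Tween 20) to pots one day after sowing, before emergence. Growth continues in a glasshouse at 24/16 °C, 14 h photoperiod, 65% humidity, with twice-daily watering, and injury is graded after 13 days from 0 (no damage) to 5 (total damage).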

[2] = tested on: Amaranthus retroflexus (AMARE); test: Pre-emergence herbicidal activity, Amaranthus retroflexus; details: 1000 g/ha, evaluated after 13 days, Test 1b
Method: (§2) Seeds of a variety of test species were sown in standard soil in pots: Triticum aestivium (TRZAW), Avena fatua (AVEFA), Alopecurus myosuroides (ALOMY), Echinochloa crus-galli (ECHCG), Lolium perenne (LOLPE), Zea Mays (ZEAMX), Abutilon theophrasti (ABUTH), Amaranthus retroflexus (AMARE) and Setaria faberi (SETFA). After cultivation for one day (pre-emergence) under controlled conditions in a glasshouse (at 24/16° C., day/night; 14 hours light; 65% humidity), the plants were sprayed with an aqueous spray solution derived from the formulation of the technical active ingredient in acetone/water (50:50) solution containing 0.5% Tween 20 (polyoxyethelyene sorbitan monolaurate, CAS RN 9005-64-5). The test plants were then grown in a glasshouse under controlled conditions (at 24/16°, day/night; 14 hours light; 65% humidity) and watered twice daily. After 13 days, the test was evaluated (5=total damage to plant; 0=no damage to plant).

[3] = tested on: Echinochloa crus-galli (ECHCG); test: Pre-emergence herbicidal activity, Echinochloa crus-galli; details: 1000 g/ha, evaluated after 13 days, Test 1b
Summary of the method: as §1

[4] = tested on: Zea Mays (ZEAMX); test: Post-emergence herbicidal activity, Zea Mays; details: 1000 g/ha, evaluated after 13 days, Test 2b
Method: (§3) Seeds of a variety of test species were sown in standard soil in pots: Triticum aestivium (TRZAW), Avena fatua (AVEFA), Alopecurus myosuroides (ALOMY), Echinochloa crus-galli (ECHCG), Lolium perenne (LOLPE), Zea Mays (ZEAMX), Abutilon theophrasti (ABUTH), Amaranthus retroflexus (AMARE) and Setaria faberi (SETFA). After 8 days cultivation (post-emergence) under controlled conditions in a glasshouse (at 24/16° C., day/night; 14 hours light; 65% humidity), the plants were sprayed with an aqueous spray solution derived from the formulation of the technical active ingredient in acetone/water (50:50) solution containing 0.5% Tween 20 (polyoxyethelyene sorbitan monolaurate, CAS RN 9005-64-5). The test plants were then grown in a glasshouse under controlled conditions (at 24/16° C., day/night; 14 hours light; 65% humidity) and watered twice daily. After 13 days, the test was evaluated (5=total damage to plant; 0=no damage to plant).

[5] = tested on: Amaranthus retroflexus (AMARE); test: Post-emergence herbicidal activity, Amaranthus retroflexus; details: 1000 g/ha, evaluated after 13 days, Test 2b
Method: as §3

[6] = tested on: Abutilon theophrasti (ABUTH); test: Pre-emergence herbicidal activity, Abutilon theophrasti; details: 1000 g/ha, evaluated after 13 days, Test 1b
Method: as §2

[7] = tested on: Lolium perenne (LOLPE); test: Post-emergence herbicidal activity, Lolium perenne; details: 1000 g/ha, evaluated after 13 days, Test 2b
Summary of the method: (§4)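 Scoring runs 0 (no damage) to 5 (total damage), assessed 13 days after treatment. Seedlings 8 days post-sowing received an aqueous spray from acetone/water 50:50 with 0.5% Tween 20, then were kept at 24/16 °C, 14 h light, 65% humidity and watered twice daily.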

[8] = tested on: Echinochloa crus-galli (ECHCG); test: Post-emergence herbicidal activity, Echinochloa crus-galli; details: 1000 g/ha, evaluated after 13 days, Test 2b
Summary of the method: as §4

[9] = tested on: Abutilon theophrasti (ABUTH); test: Post-emergence herbicidal activity, Abutilon theophrasti; details: 1000 g/ha, evaluated after 13 days, Test 2b
Method: as §3

[10] = tested on: Lolium perenne (LOLPE); test: Pre-emergence herbicidal activity, Lolium perenne; details: 1000 g/ha, evaluated after 13 days, Test 1b
Summary of the method: as §1

[11] = tested on: Zea Mays (ZEAMX); test: Pre-emergence herbicidal activity, Zea Mays; details: 1000 g/ha, evaluated after 13 days, Test 1b
Method: as §2

[12] = tested on: Setaria faberi (SETFA); test: Post-emergence herbicidal activity, Setaria faberi; details: 1000 g/ha, evaluated after 13 days, Test 2b
Summary of the method: as §4

SMILES	SETFA damage score (0-5) [1]	AMARE damage score (0-5) [2]	ECHCG damage score (0-5) [3]	ZEAMX damage score (0-5) [4]	AMARE damage score (0-5) [5]	ABUTH damage score (0-5) [6]	LOLPE damage score (0-5) [7]	ECHCG damage score (0-5) [8]	ABUTH damage score (0-5) [9]	LOLPE damage score (0-5) [10]	ZEAMX damage score (0-5) [11]	SETFA damage score (0-5) [12]
CN(C(=O)OC(C)(C)C)c1ccc(-c2cncc(C(F)(F)F)c2)nc1C(F)(F)F [Compound B17]	0	0	0	1	0	0	0	1	0	0	0	1
CC(C)OC(=O)Nc1ccc(-c2cncc(F)c2)nc1C(F)(F)F [Compound B16, isopropyl N-[6-(5-fluoro-3-pyridyl)-2-(trifluoromethyl)-3-pyridyl]carbamate]	4	0	3	5	0	0	3	4	0	1	5	5
CN(C(=O)OC(C)(C)C)c1ccc(-c2cccnc2)nc1C(F)(F)F [Compound B22]	4	1	3	2	0	1	3	4	0	1	0	4
COc1cncc(-c2ccc(NC(=O)OC(C)(C)C)c(C)n2)c1 [Compound B23]	4	1	1	5	1	1	2	2	1	1	1	3
CCOC(=O)Nc1ccc(-c2cncc(F)c2)nc1C(F)(F)F [Compound B15, ethyl N-[6-(5-fluoro-3-pyridyl)-2-(trifluoromethyl)-3-pyridyl]carbamate]	4	0	1	5	1	0	2	3	0	0	4	4
Cc1cncc(-c2ccc(N(C)C(=O)OC(C)(C)C)c(C(F)(F)F)n2)c1 [Compound B18]	1	1	0	2	0	1	1	2	0	0	0	3
CN(C(=O)OC(C)(C)C)c1ccc(-c2cncc(F)c2)nc1C(F)(F)F [Compound B29, tert-butyl N-[6-(5-fluoro-3-pyridyl)-2-(trifluoromethyl)-3-pyridyl]-N-methyl-carbamate]	4	2	4	5	1	1	3	4	1	1	3	5
CC(C)(C)OC(=O)Nc1ccc(-c2cncnc2)nc1Cl [Compound B27]	4	0	4	3	2	0	2	4	2	1	2	5
CN(C(=O)OC(C)(C)C)c1ccc(-c2cncnc2)nc1C(F)(F)F [Compound B31]	5	1	3	5	1	0	2	4	1	1	4	5
CC(C)(C)OC(=O)Nc1ccc(-c2cncc(F)c2)nc1C(F)(F)F [Compound B30, tert-butyl N-[6-(5-fluoro-3-pyridyl)-2-(trifluoromethyl)-3-pyridyl]carbamate]	4	2	3	5	0	0	4	5	0	1	5	5
Cc1nc(-c2cncc(F)c2)ccc1NC(=O)OC(C)(C)C [Compound B19]	4	1	4	5	2	1	4	4	1	3	5	5
Cc1nc(-c2cncnc2)ccc1NC(=O)OC(C)(C)C [Compound B28]	2	0	2	5	0	0	4	4	0	1	3	4
Cc1nc(-c2cncc(C(F)(F)F)c2)ccc1NC(=O)OC(C)(C)C [Compound B24]	1	1	0	2	2	1	1	2	1	0	1	2
